The record followed here is US20230226227A1, “PROSTATE SPECIFIC MEMBRANE ANTIGEN (PSMA) LIGANDS AND USES THEREOF” (ADVANCED ACCELERATOR APPLICATIONS (ITALY) SRL, priority 2019, published 2023).

Entries after “also recorded” stand apart in the source; their conditions may differ.

Data set [1] is described as follows: Effect on respiration in the unrestrained conscious rat (whole-body plethysmography). The settings on record: single iv 0.2, 0.6, 2 mg/kg; over 4 hours post-injection. It is filed as in vivo. The protocol: The aim of this study was to assess the possible effects of 0.2, 0.6 and 2.0 mg/kg ^175LuPSMA-R2 on respiratory function of conscious rats via a whole-body plethysmography method after intravenous administration according to the study design detailed in Table 3.
Inspiratory time, expiratory time, peak inspiratory flow, peak expiratory flow, tidal volume, relaxation time, minute volume, respiratory rate and enhanced pause were continuously recorded from approximately 1 hour before dosing up to 4 hours after dosing. Respiratory […] parameters were reported pre-dose and at 5, 15 and 30 minutes and 1, 1.5, 2, 3 and 4 hours after dosing. Clinical signs were recorded on the day of dosing.

A short description of data set [2]: Single dose toxicity study in the rat. The class given is in vivo, Sprague Dawley (SD) rats. The protocol:
This study aimed at assessing the toxicity of ^175Lu-PSMA-R2 right after acute intravenous injection of 2 or 4 mg/kg among Sprague Dawley (SD) rats.
Two groups of 30 animals (1:1 male:female ratio) were administered with 2 and 4 mg/kg, respectively. A control group of equal characteristics was treated with the vehicle (Table 5).
Signs of reaction to treatment at all doses were assessed at 30, 120 and 240 min p.i. as well as 24 h later. At Day 2, 10 rats per gender and per group were sacrificed. The remaining 5 animals/gender/group were observed daily over14 days.
Body weight was recorded on the day of treatment group allocation, Day 1 (day of injection), 8 and 15. Food consumption was measured on Day 2 and weekly thereafter. At the end of treatment, urine samples were collected for urinalysis. On Day 2 and 15, blood samples withdrawn at sacrifice were screened for clinical pathologies. After dissection, organs were weighted and tissues were treated for microscopic analyses (over 50 different tissues were analyzed).

For `O=C(O)CCC(NC(=O)NC(CCCCN(Cc1ccc(Br)cc1)C(=O)CCCCCNC(=O)CN1CCN(CC(=O)O)CCN(CC(=O)O)CCN(CC(=O)O)CC1)C(=O)O)C(=O)O.[175Lu]` (stereo not shown) [^175Lu-PSMA-R2], in data set [1], the “Changes in respiratory parameters” value is given as “No changes of toxicological significance were observed in respiratory parameters recorded over 4 hours post-injection”. Also, the Mortality result in data set [2] (high dose (4 mg/kg), 30 min after dosing, no cause of death established) is “One death”. For the same molecule, in data set [2] (high dose group, dead animal and 5 other animals), the “Clinical signs immediately after dosing” value is “Only decreased activity was noted”. Also, the Toxicity signs entry in data set [2] (single iv 2 and 4 mg/kg) is “did not induce toxicity signs; also recorded: No signs of toxicity observed”.
